What was measured:
Assay in all cases: Greenhouse postemergence herbicidal safening trial, visual injury after 20-22 d
[1] = test system: spring wheat (TRZAS); type: in vivo, Triticum aestivum; settings: applied alone
Excerpt: (§1) Greenhouse Trial Methodology—Evaluation of Postemergence Herbicidal Safening in Crops
(§2) Seeds of the desired test plant species were planted in a 90:10% v/v (volume/volume) mixture of PRO-MIX® BX (Premier Tech Horticulture, Quakertown, PA, USA) and PROFILE® GREENS GRADE™ (Profile Products LLC, Buffalo Grove, IL, USA) planting mixture, which typically has a pH of 5.2 to 6.2 and an organic matter content of at least 50 percent, in plastic pots with a surface area of 103.2 square centimeters (cm^2). When required to ensure good germination and healthy plants, a fungicide treatment and/or other chemical or physical treatment was applied. The plants were grown for 7-36 days (d) in a greenhouse with an approximate 14-hour (h) photo-period which was maintained at about 23° C. during the day and 22° C. during the night. Nutrients and water were added on a regular basis and supplemental lighting was provided with overhead metal halide 1000-Watt lamps as necessary. The plants were employed for testing when they reached the second or third true leaf stage.
(§3) Emulsifiable concentrates of each of each pyridine carboxylate herbicide (Compound A or Compound B) were prepared at 100 grams acid equivalent per liter (g ae/L). An aliquot of each emulsifiable concentrate was placed in a 25 mL glass vial and diluted with an aqueous mixture of 1.25% (v/v) ACTIROB® B esterified rapeseed oil (Bayer Crop Science, Research Triangle Park, NC, USA) or MSO® Concentrate with LECI-TECH® methylated soybean oil (Loveland Products, Loveland, CO, USA) to obtain concentrated stock solutions at the highest application rate for each herbicide, based upon a 12 milliliter (mL) application volume at a rate of 187 liters per hectare (L/ha). The concentrated stock solutions were further diluted with an aqueous mixture of 1.25% v/v ACTIROB® B or MSO® Concentrate with LECI-TECH® to obtain stock solutions at reduced application rates for each herbicide. Spray solutions of the herbicide combinations (Compound A or Compound B plus safener) were prepared by adding weighed amounts or aliquots of the azole carboxylate safener to the stock solutions of Compound A or Compound B to form 12-mL spray solutions in two-way combinations.
(§4) The spray solutions were applied to the plant material with an overhead Mandel track sprayer equipped with 8002E nozzles calibrated to deliver 187 L/ha over an application area of 0.503 square meters (m^2) at a spray height of 18 inches (43 centimeters (cm)) above the average plant canopy. Control plants were sprayed in the same manner with the solvent blank. All herbicide (component a) application rates are given as “g ae/ha” and all safener (component b) application rates are given as “g ai/ha.”
(§5) The treated plants and control plants were placed in a greenhouse as described above and watered by sub-irrigation to prevent wash-off of the test compounds. After 20-22 d, the condition of the test plants as compared with that of the control plants was determined visually and scored on a scale of 0 to 100 percent where 0 corresponds to no injury and 100 corresponds to complete kill.

[2] = test system: winter wheat (TRZAW); type: in vivo, Triticum aestivum
Excerpt: as §1, §2, §3, §4, §5

[3] = test system: spring barley (HORVS); type: in vivo, Hordeum vulgare; settings: applied alone
Excerpt: as §1, §2, §3, §4, §5

[4] = test system: common rice (ORYSA); type: in vivo, Oryza sativa
Excerpt: as §1, §2, §3, §4, §5

[5] = test system: Russian thistle (SASKR); type: in vivo, Salsola kali; settings: applied alone
Excerpt: as §1, §2, §3, §4, §5

[6] = test system: pigweed (AMARE); type: in vivo, Amaranthus retroflexus
Excerpt: as §1, §2, §3, §4, §5

[7] = test system: nutsedge (CYPES); type: in vivo, Cyperus esculentus
Excerpt: as §1, §2, §3, §4, §5

[8] = test system: large crabgrass (DIGSA); type: in vivo, Digitaria sanguinalis
Excerpt: as §1, §2, §3, §4, §5

[9] = test system: soybean (GLXMA); type: in vivo, Glycine max
Excerpt: as §1, §2, §3, §4, §5

[10] = test system: Chinese sprangletop (LEFCH); type: in vivo, Leptochloa chinensis
Excerpt: as §1, §2, §3, §4, §5

[11] = test system: giant foxtail (SETFA); type: in vivo, Setaria faberi
Excerpt: as §1, §2, §3, §4, §5

[12] = test system: Johnson grass (SORHA); type: in vivo, Sorghum halepense
Excerpt: as §1, §2, §3, §4, §5

Measured: % visual injury Ob

CCOC(=O)C1=NN(c2ccc(Cl)cc2Cl)C(C)(C(=O)OCC)C1 (stereo not shown) [Mefenpyr-diethyl, mefenpyr-diethyl]
0%: [1]; 10 g/ha | [1]; 20 g/ha | [1]; 40 g/ha | [1]; 80 g/ha | [1]; 120 g/ha | [2]; Mefenpyr-diethyl 20 g/ha | [2]; Mefenpyr-diethyl 40 g/ha | [2]; Mefenpyr-diethyl 80 g/ha | [2]; applied alone, 20 g/ha | [2]; applied alone, 40 g/ha | [2]; applied alone, 80 g/ha | [2]; applied alone, 120 g/ha | [3]; 10 g/ha | [3]; 20 g/ha | [3]; 40 g/ha | [3]; 80 g/ha | [3]; 120 g/ha | [4]; Mefenpyr-diethyl 20 g/ha | [4]; Mefenpyr-diethyl 40 g/ha | [4]; Mefenpyr-diethyl 80 g/ha | [5]; 10 g/ha | [5]; 20 g/ha | [5]; 40 g/ha | [6]; Mefenpyr-diethyl 20 g/ha | [6]; Mefenpyr-diethyl 40 g/ha | [6]; Mefenpyr-diethyl 80 g/ha | [6]; applied alone, 20 g/ha | [6]; applied alone, 40 g/ha | [6]; applied alone, 80 g/ha | [6]; applied alone, 120 g/ha | [7]; Mefenpyr-diethyl 20 g/ha | [7]; Mefenpyr-diethyl 40 g/ha | [7]; Mefenpyr-diethyl 80 g/ha | [7]; applied alone, 20 g/ha | [7]; applied alone, 40 g/ha | [7]; applied alone, 80 g/ha | [7]; applied alone, 120 g/ha | [8]; Mefenpyr-diethyl 20 g/ha | [8]; Mefenpyr-diethyl 40 g/ha | [8]; Mefenpyr-diethyl 80 g/ha | [9]; Mefenpyr-diethyl 20 g/ha | [9]; Mefenpyr-diethyl 40 g/ha | [9]; Mefenpyr-diethyl 80 g/ha | [10]; Mefenpyr-diethyl 20 g/ha | [10]; Mefenpyr-diethyl 40 g/ha | [10]; Mefenpyr-diethyl 80 g/ha | [11]; Mefenpyr-diethyl 20 g/ha | [11]; Mefenpyr-diethyl 40 g/ha | [11]; Mefenpyr-diethyl 80 g/ha | [12]; Mefenpyr-diethyl 20 g/ha | [12]; Mefenpyr-diethyl 40 g/ha | [12]; Mefenpyr-diethyl 80 g/ha
